In US20150329918A1, “JAGGED1 AS A MARKER AND THERAPEUTIC TARGET FOR BREAST CANCER BONE METASTASIS” (The Trustees of Princeton University, priority 2011, published 2015):

Tests used:
[1] = system: JAGGED1; experiment: JAGGED1 mRNA and protein after TGFβ treatment of breast cancer cells in vitro; format: cell-based, human; settings: several breast cancer cell lines; FIG. 5A
Experimental: SDS lysis buffer (0.05 mM Tris-HCl, 50 mM BME, 2% SDS, 0.1% Bromophenol blue, 10% glycerol) was used to collect protein from cultured cells. Heat denatured protein was then equally loaded, separated on an SDS-page gel, transferred onto a pure nitrocellulose membrane (BioRad), and blocked with either 5% milk or 5% BSA. Primary antibodies for immunoblotting included: goat anti-JAGGED1 (1:1000 dilution, sc-6011, Santa Cruz), rabbit anti-phosho-SMAD2 (1:1000 dilution, Ser465/467, Cell Signaling), and mouse anti-β-actin (1:4000 dilution, Abcam) for loading control. Membranes were incubated with horseradish peroxidase (HRP)-conjugated anti-mouse secondary antibody (1:2000 dilution, GE Healthcare) or anti-rabbit secondary antibody (1:2000 dilution, GE Healthcare) for 1 h and chemiluminescence signals were detected by ECL substrate (GE Healthcare).
(§1) For in vitro experiments, GSI-IX (Calbiochem) and TGFβ Receptor 1 (EMD Biosciences 616451) were dissolved in DMSO. […] RNA and protein were collected and analyzed for JAGGED1 expression as described above. […]
RNA from in vitro cultured cells or flow cytometry-separated cells was collected in RLT lysis buffer and extracted with RNeasy mini kit (Qiagen). […] Quantitative RT-PCR was performed using Power Syber Green PCR Master Mix (Applied Biosystems) with the ABI Prism 7900HT thermocycler (Applied Biosystems) according to the manufacturer's protocol. […]

[2] = system: pre-osteoclast Raw 264.7 cells; experiment: Osteoclastogenesis coculture assay (TRAP staining); format: cell-based, mouse; settings: 15-fold increase by JAG1 OE relative to controls; 1 μM MRK-003; FIG. 15A
Experimental: After seeding 5×10^4 control or JAG1 OE tumor cells/well into 12-well plates, murine pre-osteoclast Raw 264.7 (2×10^5 cells/well) or MOCP5 (5×10^5 cells/well) cells in media containing 30 ng/ml RANKL and DMSO or 1 μM MRK-003 were added the next day. Media were changed every 2 days. TRAP staining was performed on day 6 using a leukocyte acid phosphatase kit (Sigma). TRAP^+-multinucleated cells were scored as mature osteoclasts. The number of nuclei per osteoclast was quantified using TRAP-stained images. Mouse specific qRT-PCR primers were used to selectively quantify Raw264.7 osteoclast gene expression levels after 6 days of coculture (see Table 1 below).
For primary osteoclast coculture assays, bone marrow cells were flushed out from femora and tibiae of 4- to 6-week-old wild-type FVB mice and plated in basal culture medium overnight. The next day, nonadherent cells were added at 1×10^6/well to 12-well plates that were previously seeded with either control or JAG1 OE tumor cells supplemented with 50 ng/ml RANKL and 50 ng/ml M-CSF. Medium was changed every 3 days. TRAP staining and scoring were performed on days 10-12.

[3] = system: SCP28 tumor cells cocultured with MC3T3-E1 osteoblasts; experiment: Osteoblast coculture tumor cell quantification by luciferase assay; format: cell-based, human; settings: cocultured with MC3T3-E1; hIL-6 10 or 100 ng/ml; FIG. 14B
Experimental: MC3T3-E1 cells were seeded at 2×10^5 cells/well in 12-well plates. After confluence was achieved, luciferase/GFP-labeled (GFP+) control and JAG1 OE cells were added at 1×10^4 cells/well in triplicate and treated with DMSO or 1 μM MRK-003. Media supplemented with appropriate drugs were changed every 2 days. After 6 days the coculture was subjected to a luciferase assay to selectively quantify the number of tumor cells. These values were normalized against luciferase quantification of 12-well plates seeded with tumor cells alone.
For transfection experiments, MC3T3-E1 osteoblasts were seeded at 2×10^5 cells/well in 12-well plates and grown to 95% confluence. […] Following 6 days, the coculture was lysed and subjected to a luciferase assay to selectively quantify the number of tumor cells. For gene expression analysis, RNA from cocultures was collected in RLT lysis buffer, extracted with RNeasy mini kit (Qiagen), and subjected to quantitative RT-PCR.
as §1

[4] = system: SCP2 and 1833 tumor cells; experiment: Proliferation of JAG1 KD tumor cells in culture or as mammary tumors; parameters: species or system human
Experimental: (§2) For bone metastsis studies, 10^5 tumor cells were injected into the left cardiac ventricle of anesthetized female athymic Ncr-nu/nu or BALB/c mice. Development of metastases was monitored by BLI. Bioluminescence images were acquired with a Xenogen IVIS 200 Imaging System. Analysis was performed with Living Image software by measuring photon flux in the hindlimbs of mice. Data were normalized to the signal on day 7. Bone metastasis-free survival curves represent the time point at which each mouse developed bone metastasis by threshold BLI signals in the hindlimbs. For the orthotopic xenograft model, mammary fat pad injections and primary tumor size measurements were performed following the procedure described previously (Minn et al., 2005, which is incorporated herein by reference as if fully set forth).
After 48 hours viruses were collected, filtered and used to infect target cells in the presence of 5 μg/ml polybrene. The infected cells were selected with 1 μg/ml puromycin. For stable overexpression in the SCP28 human breast cancer cell line, human JAGGED1 cDNA was PCR amplified using the primer pair: 5′-[…]-3′ (Sense) [SEQ ID NO: 2] and 5′-[…]-3′ (Antisense) [SEQ ID NO: 3] and cloned into the retroviral expression vector pMSCVpuro using XhoI and EcoRI restriction sites (underlined=restriction sites, bold=human JAG1-specific sequences). […]

[5] = system: SCP2 and 1833 bone metastasis; experiment: Bone metastasis xenograft with JAG1 knockdown SCP2 and 1833 cells; format: in vivo, mouse
Experimental: as §2
After 48 hours viruses were collected, filtered and used to infect target cells in the presence of 5 μg/ml polybrene. The infected cells were selected with 1 μg/ml puromycin. […]
Hindlimb bones were excised from mice at the end point of each experiment, immediately after the last BLI time point. […] For quantitative analysis of lesion area, a 5× objective was used to focus on the tumor region of interest and images were acquired using the AxioCamICc3 camera set to an exposure of 100 ms. Lesions that were larger than the field of view were quantified by acquiring multiple images to encompass the entire lesion. The “spline” function of the AxioVision software was used to outline the region of interest and subsequently quantify the lesion area. Osteoclast number was assessed as multinucleated TRAP^+ cells along the tumor-bone interface and reported as number/mm of interface (Yin et al., 2003, which is incorporated herein by reference as if fully set forth). […]

Q: For “TGFβ: Recombinant human TGFβ1 (R&D systems)”, which “Jagged1 expression upon TGFβ stimulation” value [1] is on record?
A: The value was “potently upregulated”.

Q: How did the “TRAP+ osteoclasts in JAG1 OE cocultures” value [2] turn out when “rJAG1: Recombinant rat JAGGED1/Fc chimera (R&D systems)” was run?
A: Its value is “confirmed”.

Q: “rIL-6: Recombinant human IL-6 (R&D systems)” was tested. Which “proliferative ability of control tumor cells” value [3] did it give?
A: The value was “significantly enhanced”.

Q: For C[C@H](NC(=O)Cc1cc(F)cc(F)c1)C(=O)N[C@H](C(=O)OC(C)(C)C)c1ccccc1 [GSI IX], which “TRAP+ osteoclasts in JAG1 OE cocultures” value [2] is on record?
A: Its value is “confirmed”.

B1: JAG1 KD: shRNA targeting CGTACAAGTAGTTCTGTAT of JAG1 (SEQ ID NO: 1; same as sense strand SEQ ID NO: 78, shRNA SEQ ID NO: 80) (nucleic acid)
chain: GATCTCCCGTACAAGTAGTTCTGTATTTCAAGAGAATACAGAACTACTTGTACGTTTTTGGAAAAGCTTTTCCAAAAACGTACAAGTAGTTCTGTATTCTCTTGAAATACAGAACTACTTGTACGGGA
Q: For B1, which “ability of tumor cells to proliferate in culture or as mammary tumors in mice” value [4] is on record?
A: Its value is “did not alter”.

Q: What about the “onset of bone metastasis” value ([5]; SCP2 and 1833 with JAG1 shRNA) of the same molecule?
A: Its value is “delayed”.

Q: And the survival of mice ([5]; SCP2 and 1833 with JAG1 shRNA)?
A: The survival of mice was “significantly extended”.

Q: What about the “decrease in the number of TRAP+ osteoclasts along the bone tumor interface” value ([5]; histological analysis) of the same molecule?
A: The value was 2 fold.
